PubChem BioAssay AID1919010 (Molecular Pharmacology Branch, DTP, NCI, 2023)

Test system: Hs578T complex spheroid growth, percent test/control
Assay: Anticancer human tumor Hs578T cell line growth inhibition [AhR];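 also: luminescent viability signal as a proxy for spheroid growth; spheroids exposed to agents for one week after three days of growth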
Settings: for viability, T/C: stronger effect = lower value
Procedure, shortened: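 Spheroids combined tumor cells with HUVEC endothelial cells and human MSCs as stroma. AhR antagonists were paired with standard or investigational drugs, each dosed in half-log steps down from near clinical Cmax, or from 10 microM where Cmax was unknown.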

[1] = curve of first compound, second compound 0.1 µM
[2] = curve of first compound, second compound 0.316 µM
[3] = curve of first compound, second compound 1 µM
[4] = curve of first compound, second compound 3.16 µM
[5] = curve of first compound, second compound 10 µM
[6] = second compound 0.1 µM, first compound 0.0316 µM
[7] = second compound 0.1 µM, first compound 0.1 µM
[8] = second compound 0.1 µM, first compound 0.316 µM
[9] = second compound 0.1 µM, first compound 1 µM
[10] = second compound 0.1 µM, first compound 3.16 µM
[11] = second compound 0.1 µM, first compound 10 µM
[12] = second compound 0.316 µM, first compound 0.0316 µM
[13] = second compound 0.316 µM, first compound 0.1 µM
[14] = second compound 0.316 µM, first compound 0.316 µM
[15] = second compound 0.316 µM, first compound 1 µM
[16] = second compound 0.316 µM, first compound 3.16 µM
[17] = second compound 0.316 µM, first compound 10 µM
[18] = second compound 1 µM, first compound 0.0316 µM
[19] = second compound 1 µM, first compound 0.1 µM
[20] = second compound 1 µM, first compound 0.316 µM
[21] = second compound 1 µM, first compound 1 µM
[22] = second compound 1 µM, first compound 3.16 µM
[23] = second compound 1 µM, first compound 10 µM
[24] = second compound 3.16 µM, first compound 0.0316 µM
[25] = second compound 3.16 µM, first compound 0.1 µM
[26] = second compound 3.16 µM, first compound 0.316 µM
[27] = second compound 3.16 µM, first compound 1 µM
[28] = second compound 3.16 µM, first compound 3.16 µM
[29] = second compound 3.16 µM, first compound 10 µM
[30] = second compound 10 µM, first compound 0.0316 µM
[31] = second compound 10 µM, first compound 0.1 µM
[32] = second compound 10 µM, first compound 0.316 µM
[33] = second compound 10 µM, first compound 1 µM
[34] = second compound 10 µM, first compound 3.16 µM
[35] = second compound 10 µM, first compound 10 µM

| IC50 [1] | IC50 [2] | IC50 [3] | IC50 [4] | IC50 [5] | Structure (SMILES) | viability, T/C [6] | viability, T/C [7] | viability, T/C [8] | viability, T/C [9] | viability, T/C [10] | viability, T/C [11] | viability, T/C [12] | viability, T/C [13] | viability, T/C [14] | viability, T/C [18] | viability, T/C [19] | viability, T/C [24] | viability, T/C [25] | viability, T/C [30] | viability, T/C [31] | further results |
| --- | --- | --- | --- | --- | --- | --- | --- | --- | --- | --- | --- | --- | --- | --- | --- | --- | --- | --- | --- | --- | --- |
| > 10000 nM | > 10000 nM | > 10000 nM | < 31.6 nM | < 31.6 nM | Nc1ccn(C2OC(CO)C(O)C2(F)F)c(=O)n1 (centres undefined) + Cc1cncc(-c2nc(NCCc3c[nH]c4ccccc34)c3ncn(C(C)C)c3n2)c1 | 59.4% | 59.6% | 62.6% | 56.5% | 57.5% | 56.8% | 67.2% | 65.4% | 63% | 61.6% | 65.2% | 37.8% | 42.8% | 4.28% | 4.47% | viability, T/C [15]: 60.9%; viability, T/C [16]: 59.4%; viability, T/C [17]: 59.2%; viability, T/C [20]: 56.3%; viability, T/C [21]: 57.8%; viability, T/C [22]: 56.8%; viability, T/C [23]: 56.2%; viability, T/C [26]: 41.1%; viability, T/C [27]: 40.4%; viability, T/C [28]: 33.3%; viability, T/C [29]: 37.8%; viability, T/C [32]: 3.43%; viability, T/C [33]: 2.76%; viability, T/C [34]: 3.29%; viability, T/C [35]: 4.67% |
| > 100 nM | > 100 nM | > 100 nM | > 100 nM | > 100 nM | Cn1ncnc1C1c2n[nH]c(=O)c3cc(F)cc(c23)NC1c1ccc(F)cc1 (centres undefined) + CC(CO)NC(=O)c1cc(-c2ccc(Cl)cc2)nn(-c2cnn(C)c2)c1=O | 117% | 120% | – | – | – | – | 118% | 108% | – | 117% | 109% | 118% | 118% | 109% | 118% | viability, T/C (second compound 0.1 µM, first compound 0.000316 µM): 111%; viability, T/C (second compound 0.1 µM, first compound 0.001 µM): 118%; viability, T/C (second compound 0.1 µM, first compound 0.00316 µM): 117%; viability, T/C (second compound 0.1 µM, first compound 0.01 µM): 109%; viability, T/C (second compound 0.316 µM, first compound 0.000316 µM): 110%; viability, T/C (second compound 0.316 µM, first compound 0.001 µM): 115%; viability, T/C (second compound 0.316 µM, first compound 0.00316 µM): 125%; viability, T/C (second compound 0.316 µM, first compound 0.01 µM): 118%; viability, T/C (second compound 1 µM, first compound 0.000316 µM): 112%; viability, T/C (second compound 1 µM, first compound 0.001 µM): 131%; viability, T/C (second compound 1 µM, first compound 0.00316 µM): 127%; viability, T/C (second compound 1 µM, first compound 0.01 µM): 109%; viability, T/C (second compound 3.16 µM, first compound 0.000316 µM): 108%; viability, T/C (second compound 3.16 µM, first compound 0.001 µM): 127%; viability, T/C (second compound 3.16 µM, first compound 0.00316 µM): 140%; viability, T/C (second compound 3.16 µM, first compound 0.01 µM): 114%; viability, T/C (second compound 10 µM, first compound 0.000316 µM): 95.1%; viability, T/C (second compound 10 µM, first compound 0.001 µM): 110%; viability, T/C (second compound 10 µM, first compound 0.00316 µM): 104%; viability, T/C (second compound 10 µM, first compound 0.01 µM): 95.6% |
| – | – | – | – | – | Cc1ccccc1N=Nc1ccc(NC(=O)c2ccnn2C)c(C)c1 | – | – | – | – | – | – | – | – | – | – | – | – | – | – | – | viability, T/C (compound 0.1 µM): 101% [middle of 20 runs]; viability, T/C (compound 1 µM): 102% [middle of 20 runs]; viability, T/C (compound 10 µM): 64.6% [middle of 20 runs]; IC50 (compound alone, run of 08/22/2022): > 10000 nM |
| > 10000 nM | > 10000 nM | > 10000 nM | 1860 nM | < 31.6 nM | COc1cc(C2c3cc4c(cc3C(OC3OC5COC(C)OC5C(O)C3O)C3COC(=O)C23)OCO4)cc(OC)c1O (centres undefined) + Cc1cncc(-c2nc(NCCc3c[nH]c4ccccc34)c3ncn(C(C)C)c3n2)c1 | 108% | 101% | 89% | 80.7% | 88.5% | 63.9% | 108% | 101% | 94.3% | 96.9% | 101% | 64% | 64.1% | 6.72% | 7.12% | viability, T/C [15]: 77%; viability, T/C [16]: 76.9%; viability, T/C [17]: 61.3%; viability, T/C [20]: 93%; viability, T/C [21]: 85.8%; viability, T/C [22]: 73.2%; viability, T/C [23]: 63%; viability, T/C [26]: 61.5%; viability, T/C [27]: 49%; viability, T/C [28]: 49.3%; viability, T/C [29]: 37.8%; viability, T/C [32]: 5.72%; viability, T/C [33]: 3.77%; viability, T/C [34]: 4.01%; viability, T/C [35]: 4.25% |
